In patent US10590143B2, “Herbicidally active (alkynyl-phenyl)-substituted cyclic dione compounds and derivatives thereof” (Syngenta Limited, priority 2013, dated 2020):
Like-named read-outs stand apart in the source and are kept apart here.

Tests used:
Assay in all cases: Biological Example 1 glasshouse assay for herbicidal activity
Format in all cases: in vivo
[1] = tested on: Zea mays (ZEAMX, corn, maize, e.g. volunteer corn); details: Zea mays, 312 h, 13 days after application, read-out: percentage phytotoxicity ZEAMX
Method in brief: (§1)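 Visual % phytotoxicity (0% = no damage, 100% = total damage) scored 13 days after spraying. Spray: acetone/water 50:50 + 0.5% Tween 20, applied pre-emergence (day 1 after sowing) or post-emergence (day 8). Usually one plant per species per rate and timing.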

[2] = tested on: Abutilon theophrasti (ABUTH); details: 312 h, 13 days after application, read-out: percentage phytotoxicity ABUTH
Method in brief: as §1

[3] = tested on: Amaranthus retroflexus (AMARE); details: Amaranthus retroflexus, 312 h, 13 days after application, read-out: percentage phytotoxicity AMARE
Method in brief: as §1

[4] = tested on: Alopecurus myosuroides (ALOMY); details: 312 h, 13 days after application, read-out: percentage phytotoxicity ALOMY
Method in brief: as §1

[5] = tested on: Echinochloa crus-galli (ECHCG); details: Echinochloa crus-galli, 312 h, 13 days after application, read-out: percentage phytotoxicity ECHCG
Method in brief: as §1

Setaria faberi (SETFA) = details: 312 h, 13 days after application, read-out: percentage phytotoxicity SETFA
Method in brief: as §1

| SMILES | pest or weed control at 8 g/ha ([1]; post-emergence, post-emergence) [%] | pest or weed control at 30 g/ha ([1]; post-emergence, post-emergence) [%] | pest or weed control at 250 g/ha ([1]; post-emergence, post-emergence) [%] | pest or weed control at 30 g/ha ([1]; pre-emergence, pre-emergence) [%] | pest or weed control at 250 g/ha ([1]; pre-emergence, pre-emergence) [%] | pest or weed control at 8 g/ha ([2]; post-emergence, post-emergence) [%] | pest or weed control at 30 g/ha ([2]; post-emergence, post-emergence) [%] | pest or weed control at 250 g/ha ([2]; post-emergence, post-emergence) [%] | pest or weed control at 30 g/ha ([2]; pre-emergence, pre-emergence) [%] | pest or weed control at 250 g/ha ([2]; pre-emergence, pre-emergence) [%] | pest or weed control at 8 g/ha ([3]; post-emergence, post-emergence) [%] | pest or weed control at 30 g/ha ([3]; post-emergence, post-emergence) [%] | pest or weed control at 250 g/ha ([3]; post-emergence, post-emergence) [%] | pest or weed control at 30 g/ha ([3]; pre-emergence, pre-emergence) [%] | pest or weed control at 250 g/ha ([3]; pre-emergence, pre-emergence) [%] | pest or weed control at 8 g/ha ([4]; post-emergence) [%] | pest or weed control at 30 g/ha ([4]; post-emergence) [%] | pest or weed control at 250 g/ha ([4]; post-emergence) [%] | pest or weed control at 30 g/ha ([4]; pre-emergence) [%] | pest or weed control at 250 g/ha ([4]; pre-emergence) [%] | other results |
| --- | --- | --- | --- | --- | --- | --- | --- | --- | --- | --- | --- | --- | --- | --- | --- | --- | --- | --- | --- | --- | --- |
| CC#Cc1cc(F)c(C2=C(OC(=O)C(C)(C)C)C3CCC(C3)C2=O)c(OC)c1 (stereo not drawn) [Compound P1] | 100 | 100 | 100 | 90 | 100 | 0 | 0 | 80 | 10 | 30 | 0 | 10 | 40 | 50 | 70 | 60 | 90 | 100 | 70 | 100 | pest or weed control at 8 g/ha ([5]; post-emergence, post-emergence): 80%; pest or weed control at 30 g/ha ([5]; post-emergence, post-emergence): 100%; pest or weed control at 250 g/ha ([5]; post-emergence, post-emergence): 100%; pest or weed control at 30 g/ha ([5]; pre-emergence, pre-emergence): 90%; pest or weed control at 250 g/ha ([5]; pre-emergence, pre-emergence): 100%; pest or weed control at 8 g/ha (Setaria faberi (SETFA); post-emergence, post-emergence): 70%; pest or weed control at 30 g/ha (Setaria faberi (SETFA); post-emergence, post-emergence): 80%; pest or weed control at 250 g/ha (Setaria faberi (SETFA); post-emergence, post-emergence): 100%; pest or weed control at 30 g/ha (Setaria faberi (SETFA); pre-emergence, pre-emergence): 40%; pest or weed control at 250 g/ha (Setaria faberi (SETFA); pre-emergence, pre-emergence): 80% |
| CC#Cc1cc(F)c(C2=C(OC(=O)OC(C)C)C3CCC(C3)C2=O)c(OC)c1 (stereo not drawn) [Compound P3] | 90 | 100 | 100 | 80 | 100 | 10 | 10 | 80 | 0 | 10 | 0 | 0 | 40 | 30 | 60 | 60 | 80 | 100 | 70 | 100 | pest or weed control at 8 g/ha ([5]; post-emergence, post-emergence): 80%; pest or weed control at 30 g/ha ([5]; post-emergence, post-emergence): 100%; pest or weed control at 250 g/ha ([5]; post-emergence, post-emergence): 100%; pest or weed control at 30 g/ha ([5]; pre-emergence, pre-emergence): 80%; pest or weed control at 250 g/ha ([5]; pre-emergence, pre-emergence): 100%; pest or weed control at 8 g/ha (Setaria faberi (SETFA); post-emergence, post-emergence): 60%; pest or weed control at 30 g/ha (Setaria faberi (SETFA); post-emergence, post-emergence): 80%; pest or weed control at 250 g/ha (Setaria faberi (SETFA); post-emergence, post-emergence): 100%; pest or weed control at 30 g/ha (Setaria faberi (SETFA); pre-emergence, pre-emergence): 20%; pest or weed control at 250 g/ha (Setaria faberi (SETFA); pre-emergence, pre-emergence): 80% |
| CC#Cc1cc(F)c(C2=C(OC(=O)SCC)C3CCC(C3)C2=O)c(OC)c1 (stereo not drawn) [Compound P4] | 100 | 100 | 100 | 90 | 100 | 10 | 20 | 80 | 0 | 40 | 20 | 30 | 20 | 30 | 60 | 80 | 90 | 90 | 80 | 100 | pest or weed control at 8 g/ha ([5]; post-emergence, post-emergence): 90%; pest or weed control at 30 g/ha ([5]; post-emergence, post-emergence): 100%; pest or weed control at 250 g/ha ([5]; post-emergence, post-emergence): 100%; pest or weed control at 30 g/ha ([5]; pre-emergence, pre-emergence): 100%; pest or weed control at 250 g/ha ([5]; pre-emergence, pre-emergence): 100%; pest or weed control at 8 g/ha (Setaria faberi (SETFA); post-emergence, post-emergence): 70%; pest or weed control at 30 g/ha (Setaria faberi (SETFA); post-emergence, post-emergence): 80%; pest or weed control at 250 g/ha (Setaria faberi (SETFA); post-emergence, post-emergence): 100%; pest or weed control at 30 g/ha (Setaria faberi (SETFA); pre-emergence, pre-emergence): 60%; pest or weed control at 250 g/ha (Setaria faberi (SETFA); pre-emergence, pre-emergence): 90% |
